In PubChem BioAssay (NCI):
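Following 48 hours of exposure in 96-well plates, responses at five concentrations were used to interpolate endpoints linearly. GI50: concentration for 50% inhibition of growth. At the TGI there is no net growth.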

Experiments:
Experiment in all cases: growth of human tumour cells (NCI), 48 h
[1] = test system: COLO 205 colon
[2] = test system: HL-60(TB) leukemia
[3] = test system: M14 melanoma
[4] = test system: NCI-H522 lung
[5] = test system: RXF 393 renal
[6] = test system: SK-MEL-2 melanoma
[7] = test system: SK-MEL-5 melanoma
[8] = test system: SNB-19 CNS
[9] = test system: SNB-75 CNS
[10] = test system: UACC-257 melanoma

SMILES | GI50 [1] [µM] | TGI [1] [µM] | GI50 [2] [µM] | TGI [2] [µM] | GI50 [3] [µM] | TGI [3] [µM] | GI50 [4] [µM] | TGI [4] [µM] | GI50 [5] [µM] | TGI [5] [µM] | GI50 [6] [µM] | TGI [6] [µM] | GI50 [7] [µM] | TGI [7] [µM] | GI50 [8] [µM] | TGI [8] [µM] | GI50 [9] [µM] | TGI [9] [µM] | GI50 [10] [µM] | TGI [10] [µM]
O=C1/C(=C(/c2ccccc2)N2CCOCC2)Cc2ccccc21 | 1.34 | 2.94 | 0.235 | 0.485 | 1.84 | 4.67 | 0.492 | 1.89 | 0.883 | 2.19 | 2.03 | 6.34 | 2.25 | 6.73 | 10.6 | 23.8 | 1.48 | 3.66 | 2.21 | 6.46
CN(C)CCC1(C2=CCCC2)CC/C(=C\c2ccc(Cl)cc2)C1=O (centres undefined) |  | 28.3 |  | 3.91 |  | 3.84 |  | 18.8 |  | 10.9 |  | 14.2 |  | 4.07 |  | 24.1 |  | 20.4 |  | 8.62
O=C1C2C3C=C4c5ccccc5N(c5ccccc5)C4(C2C(=O)N1c1ccc([N+](=O)[O-])cc1)[C@H]1C(=O)N(c2ccc([N+](=O)[O-])cc2)C(=O)[C@@H]31 (some centres undefined) |  | > 100 |  | > 100 |  | > 100 |  | > 100 |  | > 100 |  | > 100 |  | > 100 |  | > 100 |  | > 100 |  | > 100
CCOC(=O)C1CCN(S(=O)(=O)/N=C2/NC(=O)NC2=C(Cl)Cl)CC1 | 2.08 | 3.83 | 1.74 | 4.34 | 1.82 | 3.6 | 2.22 | 4.28 | 1.61 | 3.06 | 2.37 | 7.5 | 1.98 | 4.26 | 1.84 | 5.11 | 2.86 | 14.1 | 2.38 | 7.24
CCc1nc2cc(F)c(/C=C/C(=O)NO)cc2c(=O)n1CCc1ccccc1 | 0.221 | 0.537 | 0.415 | > 100 | 0.355 | 4.78 | 0.171 | 0.392 | 0.23 | 0.731 | 0.293 | 0.863 | 0.256 | 0.701 | 0.46 | 17 | 0.356 | 13.8 | 0.216 | 0.72
Cc1cc(N(CCC#N)CCC#N)ccc1/C=C(\NC(=O)/C=C/c1ccccc1)C(N)=O |  | > 100 |  | > 100 |  | > 100 |  | > 100 |  | 21 |  | > 100 |  | > 100 |  | > 100 |  | > 100 |  | > 100
O=C(Nc1n[nH]c2cc(-c3ccccc3)ccc12)C1CC1 | 12.4 | > 25 | 6.34 | > 20.7 | 15.4 | > 25 | 1.29 | > 25 | 7.91 | > 25 | > 25 | > 25 | 8.75 | > 25 | > 19.8 | > 25 | > 20.9 | > 25 | > 25 | > 25
Cc1cc2nc(C=C(C(F)(F)F)C(F)(F)F)oc2cc1C |  | 0.392 |  | 5.03 |  | 5.03 |  | 6.35 |  | 4.92 |  | > 10 |  | > 10 |  | > 10 |  | > 10 |  | > 10
CC1=[N+]([O-])c2ccccc2C(=O)C1=O |  | > 100 |  | > 100 |  | > 100 |  | 71.4 |  | > 100 |  | > 100 |  | > 100 |  | > 100 |  | > 100 |  | > 100
Cc1cc(C(=O)Nc2ccc3cc(CN4CCOCC4)ccc3n2)c(C)n1-c1ccccc1 | 1.83 | 5.07 | 1.71 | 5.06 | 1.81 | 5.71 | 2.67 | 9.38 | 2.18 | 7.01 | 2.44 | 5.89 | 0.202 | 0.799 | 17.6 | > 100 | 3.42 | 15.8 | 1.27 | 4.07
COc1ccc(C2=C(Cl)c3cc(OC)c(OC)cc3C2Cl)cc1 (centres undefined) |  | 33.4 |  | 18.1 |  | 37.1 |  | > 27.5 |  | 30.4 |  | 26.3 |  | 27.5 |  | 39.5 |  | 8.46 |  | 39.6
CCOC(=O)CCC(=O)C1c2cccc(O)c2C(=O)c2c(O)cc(C)cc21 (centres undefined) |  | 3.57 |  | 1.8 |  | 2.71 |  | 1.33 |  | 1.25 |  | 1.08 |  | 1.83 |  | 3.74 |  | 1.76 |  | 2.8
C=CCCCCC/C=C\[C@@H](O)C#CC#C/C=C/CO | > 100 | > 100 | 11.2 | 27.8 | > 100 | > 100 | 26 | 98.7 | > 100 | > 100 | > 100 | > 100 | > 100 | > 100 | > 100 | > 100 | 0.536 | > 100 | > 100 | > 100
C=C(C)[C@@H]1CC[C@]2(CO)CC[C@]3(C)[C@H](CC[C@@H]4[C@@]5(C)C=C(C#N)C(=O)C(C)(C)[C@@H]5CC[C@]43C)[C@@H]12 | 1.38 | 2.72 | 0.471 | 5.5 | 1.55 | 3.78 | 1.9 | 6.58 | 1.13 | 2.76 | 1.91 | 4.59 | 1.2 | 2.52 | 1.58 | 4.08 | 1.04 | 3.39 | 1.29 | 3.04
CC(=O)O[C@H]1CCC2[C@@H]3CC[C@]4(C)CC(=O)C=C[C@]4(C)C3CC[C@@]21C (some centres undefined) |  | 31.3 |  | 66.7 |  | 34.1 |  | 76.9 |  | 67.7 |  | 38.7 |  | 28.3 |  | > 100 |  | > 93.1 |  | 43.9
O=C(/C=C/c1ccc(Cl)c(Cl)c1)c1ccc2ccccc2c1 |  | 28.7 |  | > 100 |  | > 100 |  | > 100 |  | > 100 |  | > 100 |  | > 100 |  | > 100 |  | > 100 |  | > 100
CC1(C)C(=O)/C(=C\c2cccnc2)C[C@]2(C)[C@H]3CC[C@@H]4[C@H]5[C@H](C(=O)/C=C/c6cccnc6)CC[C@]5(C(=O)O)CC[C@@]4(C)[C@]3(C)CC[C@@H]12 | 2.33 | 5.17 | 1.95 | 5.27 | 2.64 | 8.97 | 2.35 | 5.99 | 1.67 | 3.1 | 2.54 | 6.66 | 1.8 | 3.22 | 2.34 | 5.69 | 4.01 | 44.2 | 1.88 | 4.25
CC(C)c1c(O)c(O)c2c(c1O)C(=O)C(O)=C1C(C)(C)CCC[C@@]12C |  | 3.6 |  | 4.78 |  | 19.3 |  | 13.4 |  | 9.24 |  | 13.9 |  | 10.8 |  | 22.1 |  | 8.12 |  | 8.61
COc1ccc(-c2[nH]c3ccc(OC)cc3c2/C=C(\C#N)S(=O)(=O)c2ccccc2)cc1 | 0.396 | 1.83 | 0.812 |  | 0.494 | 18.2 | 1.58 | > 20.7 | > 100 | > 100 | 6.42 | > 69.3 | 0.319 | 2.39 | 3.14 | > 100 | 0.561 | 45.5 | 7.06 | > 46.5
CC1=CC(C)(C)N=C2SC(c3ccc(N)cc3)=NN12 |  | > 61.2 |  | > 53 |  | > 100 |  | > 100 |  | > 100 |  | > 100 |  | > 100 |  | > 100 |  | > 100 |  | > 100
CN1CCN(CCCNc2nc3ccc(Oc4ccc(NC(=O)Nc5cc(C(F)(F)F)ccc5F)cc4)cc3[nH]2)CC1 | 4.5 | 7.97 | 5.2 | 10.3 | 4.54 | 8.61 | 3.8 | 7.27 | 4.07 | 9.17 | 4.64 | 8.66 | 3.66 | 7.01 | 3.99 | 7.42 | 5.14 | 13.2 | 4.02 | 7.93
CCCCCCCCCCCCCCCC(=O)OCC(C[As](=O)(O)O)OC(=O)CCCCCCCCCCCCCCC (centres undefined) |  | > 100 |  | > 100 |  | > 100 |  | > 100 |  | > 100 |  | > 100 |  | > 100 |  | > 100 |  | > 96.7 |  | > 100
O=C(O)CNS(=O)(=O)c1ccc(NC(=O)c2ccc([N+](=O)[O-])cc2)cc1 |  | > 100 |  | > 100 |  | > 100 |  | > 100 |  | > 100 |  | > 100 |  | > 100 |  | > 100 |  | > 100 |  | > 100
